The values below come from BindingDB's records for doi:10.1016/s0960-894x(99)00488-6 (Smithkline Beecham Pharmaceuticals, 1999).

SMILES strings stand for the structures.

This assay deals with Tyrosine--tRNA ligase (Staphylococcus aureus). Briefly: Compound was tested for inhibition of Staphylococcus aureus tyrosyl tRNA Synthetase.
Consider `N[C@@H](Cc1ccc(O)cc1)C(=O)NC(C(=O)O)c1cccc(O)c1` (stereo partly drawn) [[(S)-2-Amino-3-(4-hydroxy-phenyl)-propionylamino]-(3-hydroxy-phenyl)-acetic acid], for which 3400 nM corresponded to half-maximal inhibition (IC50).
In the case of `COC(=O)C(NC(=O)[C@@H](N)Cc1ccc(O)cc1)c1ccccc1O` (stereo partly drawn) [[(S)-2-Amino-3-(4-hydroxy-phenyl)-propionylamino]-(2-hydroxy-phenyl)-acetic acid methyl ester] it was 1200 nM; in that of `N[C@@H](Cc1ccc(O)cc1)C(=O)NC(C(=O)O)c1ccccc1O` (stereo partly drawn) [[(S)-2-Amino-3-(4-hydroxy-phenyl)-propionylamino]-(2-hydroxy-phenyl)-acetic acid], 800 nM; in that of `N[C@@H](Cc1ccc(O)cc1)C(=O)N[C@H](C(=O)O)c1ccccc1` [(S)-[(S)-2-Amino-3-(4-hydroxy-phenyl)-propionylamino]-phenyl-acetic acid], 900 nM.
In the case of `N[C@@H](Cc1ccc(O)cc1)C(=O)NC(C(=O)O)c1ccccc1F` (stereo partly drawn) [[(S)-2-Amino-3-(4-hydroxy-phenyl)-propionylamino]-(2-fluoro-phenyl)-acetic acid] it was 7800 nM.
For `N[C@@H](Cc1ccc(O)cc1)C(=O)N[C@H](C(=O)O)c1ccc(O)c(O)c1` [(S)-[(S)-2-Amino-3-(4-hydroxy-phenyl)-propionylamino]-(3,4-dihydroxy-phenyl)-acetic acid] the value was 11000 nM.
